A short description of data set [1]: Drug interaction trials: effect of dolutegravir on pharmacokinetics of coadministered drugs (Table 8).
Data set [2] is described as follows: Drug interaction trials: effect of coadministered drugs on pharmacokinetics of dolutegravir (Table 9). Conditions: dolutegravir 50 mg single dose.
A short description of data set [3]: Established and other potentially significant drug interactions for dolutegravir (Table 5). The class given is in vivo, human. An excerpt:
These recommendations are based on either drug interaction trials or predicted interactions due to the expected magnitude of interaction and potential for serious adverse events or loss of efficacy [see Contraindications (4), Clinical Pharmacology (12.3)].

A short description of data set [4]: Solubility in water.
The subject of data set [5] is lamivudine-resistant HIV-1. Kind of data set: Cross-resistance against lamivudine-resistant HIV-1.
For data set [6] the following is noted: multi-drug regimen, HIV-1/HCV co-infected subjects.
The subject of data set [7] is phosphorylation of lamivudine, stavudine, and zidovudine. The data set can be described thus: In vitro phosphorylation of nucleoside analogues with ribavirin. In kind it is cell-based.
[8] abbreviates: Norelgestromin 0.25 mg, dolutegravir 50 mg twice daily.
Where [9] appears, read: Calcium carbonate 1,200 mg 2 h after dolutegravir.
[10] abbreviates: Calcium carbonate 1,200 mg simultaneous administration (fasted).
The mark [11] stands for this setting: Calcium carbonate 1,200 mg simultaneous administration (fed).
Setting [12] is: Daclatasvir 60 mg once daily, dolutegravir 50 mg once daily, No Effect = 1.00.
[13] abbreviates: Ethinyl estradiol 0.035 mg, dolutegravir 50 mg twice daily.
Setting [14] is: Ferrous fumarate 324 mg 2 h after dolutegravir.
[15] abbreviates: Ferrous fumarate 324 mg simultaneous administration (fasted).
The mark [16] stands for this setting: Ferrous fumarate 324 mg simultaneous administration (fed).
The mark [17] stands for this setting: Grazoprevir 200 mg once daily, dolutegravir 50 mg single dose.
Setting [18] is: metabolite GS-331007 after Sofosbuvir 400 mg once daily, dolutegravir 50 mg once daily.
The mark [19] stands for this setting: Metformin 500 mg twice daily, dolutegravir 50 mg once daily.
[20] abbreviates: Metformin 500 mg twice daily, dolutegravir 50 mg twice daily.
Setting [21] is: Sofosbuvir 400 mg once daily, dolutegravir 50 mg once daily.

Each structure is given as a SMILES string.

As to `C#C[C@]1(O)CC[C@H]2[C@@H]3CCC4=CC(=NO)CC[C@@H]4[C@H]3CC[C@@]21CC` (mixture of isomers) [Norelgestromin], in data set [1] (setting [8]), the “Geometric Mean Ratio of Coadministered Drug AUC with/without Dolutegravir” value stood at 0.98, the “Geometric Mean Ratio of Coadministered Drug Cmax with/without Dolutegravir” value was 0.89 and the “Geometric Mean Ratio of Coadministered Drug Cτ or C24 with/without Dolutegravir” value is 0.93.
On to `O=C([O-])[O-].[Ca+2]` [Calcium carbonate], for which, in data set [2] (setting [9]), the “Geometric Mean Ratio of Dolutegravir AUC with/without Coadministered Drug” value is given as 0.94, the “Geometric Mean Ratio of Dolutegravir Cmax with/without Coadministered Drug” value amounted to 1.00 and the “Geometric Mean Ratio of Dolutegravir Cτ or C24 with/without Coadministered Drug” value is on record as 0.90. Further, in data set [2] (setting [10]), the “Geometric Mean Ratio of Dolutegravir AUC with/without Coadministered Drug” value is on record as 0.61, the “Geometric Mean Ratio of Dolutegravir Cmax with/without Coadministered Drug” value worked out at 0.63 and the “Geometric Mean Ratio of Dolutegravir Cτ or C24 with/without Coadministered Drug” value worked out at 0.61. Also, in data set [2] (setting [11]), the “Geometric Mean Ratio of Dolutegravir AUC with/without Coadministered Drug” value was determined as 1.09, the “Geometric Mean Ratio of Dolutegravir Cmax with/without Coadministered Drug” value is on record as 1.07 and the “Geometric Mean Ratio of Dolutegravir Cτ or C24 with/without Coadministered Drug” value came out at 1.08.
As for `COC(=O)N[C@H](C(=O)N1CCC[C@H]1c1nc(-c2ccc(-c3ccc(-c4c[nH]c([C@@H]5CCCN5C(=O)[C@@H](NC(=O)OC)C(C)C)n4)cc3)cc2)c[nH]1)C(C)C` [Daclatasvir], in data set [1] (setting [12]), the “Geometric Mean Ratio of Coadministered Drug AUC with/without Dolutegravir” value amounted to 0.98, the “Geometric Mean Ratio of Coadministered Drug Cmax with/without Dolutegravir” value stood at 1.03 and the “Geometric Mean Ratio of Coadministered Drug Cτ or C24 with/without Dolutegravir” value amounted to 1.06.
For `CN(CCOc1ccc(NS(C)(=O)=O)cc1)CCc1ccc(NS(C)(=O)=O)cc1` [Dofetilide], the “Effect on Concentration of dofetilide” value in data set [3] (in vivo) is on record as “↑Dofetilide”.
Consider `C[C@@H]1CCO[C@H]2Cn3cc(C(=O)NCc4ccc(F)cc4F)c(=O)c([O-])c3C(=O)N12.[Na+]` [Dolutegravir sodium, sodium (4R,12aS)-9-{[(2,4-difluorophenyl)methyl]carbamoyl}-4-methyl-6,8-dioxo-3,4,6,8,12,12a-hexahydro-2H-pyrido[1′, 2′:4,5]pyrazino[2,1-b][1,3]oxazin-7-olate], for which the Solubility in water entry in data set [4] is on record as “slightly soluble”.
On to `C#C[C@]1(O)CC[C@H]2[C@@H]3CCc4cc(O)ccc4[C@H]3CC[C@@]21C` [Ethinyl estradiol], for which, in data set [1] (setting [13]), the “Geometric Mean Ratio of Coadministered Drug AUC with/without Dolutegravir” value was found to be 1.03, the “Geometric Mean Ratio of Coadministered Drug Cmax with/without Dolutegravir” value is recorded as 0.99 and the “Geometric Mean Ratio of Coadministered Drug Cτ or C24 with/without Dolutegravir” value is 1.02.
Regarding `O=C([O-])/C=C/C(=O)[O-].[Fe+2]` [Ferrous fumarate], the “Geometric Mean Ratio of Dolutegravir AUC with/without Coadministered Drug” value in data set [2] (setting [14]) was found to be 0.95; in data set [2] (setting [15]), 0.46; in data set [2] (setting [16]), 0.98. Also, the “Geometric Mean Ratio of Dolutegravir Cmax with/without Coadministered Drug” value is 0.99 in data set [2] (setting [14]), 0.43 in data set [2] (setting [15]) and 1.03 in data set [2] (setting [16]). Besides, the entries for the “Geometric Mean Ratio of Dolutegravir Cτ or C24 with/without Coadministered Drug” value in data set [2] (setting [14]), in data set [2] (setting [15]) and in data set [2] (setting [16]) were 0.92, 0.44 and 1.00, respectively.
Take `C=C[C@@H]1C[C@]1(NC(=O)[C@@H]1C[C@@H]2CN1C(=O)[C@H](C(C)(C)C)NC(=O)O[C@@H]1C[C@H]1CCCCCc1nc3ccc(OC)cc3nc1O2)C(=O)NS(=O)(=O)C1CC1.O` [Grazoprevir]: in data set [1] (setting [17]), the “Geometric Mean Ratio of Coadministered Drug AUC with/without Dolutegravir” value came to 0.81, the “Geometric Mean Ratio of Coadministered Drug Cmax with/without Dolutegravir” value was 0.64 and the “Geometric Mean Ratio of Coadministered Drug Cτ or C24 with/without Dolutegravir” value is listed as 0.86.
Turning to `C[C@@]1(F)[C@H](O)[C@@H](CO)O[C@H]1n1ccc(=O)[nH]c1=O` [Metabolite (GS-331007)], in data set [1] (setting [18]), the “Geometric Mean Ratio of Coadministered Drug AUC with/without Dolutegravir” value turned out to be 0.99, the “Geometric Mean Ratio of Coadministered Drug Cmax with/without Dolutegravir” value was 1.01 and the “Geometric Mean Ratio of Coadministered Drug Cτ or C24 with/without Dolutegravir” value is on record as 0.99.
For the compound `CN(C)C(=N)N=C(N)N` [Metformin], in data set [3] (concomitant dolutegravir), the “Effect on Concentration of metformin” value was “↑Metformin”. Besides, in data set [1] (setting [19]), the “Geometric Mean Ratio of Coadministered Drug AUC with/without Dolutegravir” value is 1.79 and the “Geometric Mean Ratio of Coadministered Drug Cmax with/without Dolutegravir” value was 1.66. Also, in data set [1] (setting [20]), the “Geometric Mean Ratio of Coadministered Drug AUC with/without Dolutegravir” value was found to be 2.45 and the “Geometric Mean Ratio of Coadministered Drug Cmax with/without Dolutegravir” value is on record as 2.11.
`Cc1ncc2n1-c1ccc(Cl)cc1C(c1ccccc1F)=NC2` [Midazolam]: the “Geometric Mean Ratio of Coadministered Drug AUC with/without Dolutegravir” value in data set [1] (Midazolam 3 mg, dolutegravir 25 mg once daily) is on record as 0.95.
Take `CC(C)OC(=O)[C@H](C)N[P@](=O)(OC[C@H]1O[C@@H](n2ccc(=O)[nH]c2=O)[C@](C)(F)[C@@H]1O)Oc1ccccc1` [Sofosbuvir]: in data set [1] (setting [21]), the “Geometric Mean Ratio of Coadministered Drug AUC with/without Dolutegravir” value was found to be 0.92 and the “Geometric Mean Ratio of Coadministered Drug Cmax with/without Dolutegravir” value was 0.88.
Consider `Cc1cn([C@H]2C[C@H](N=[N+]=[N-])[C@@H](CO)O2)c(=O)[nH]c1=O` [Zidovudine], for which, in data set [5], the “Antiretroviral activity against lamivudine-resistant HIV-1” value is “maintains its antiretroviral activities”.
As to `NC(=O)c1ncn([C@@H]2O[C@H](CO)[C@@H](O)[C@H]2O)n1` [ribavirin], the “Pharmacokinetic or pharmacodynamic interaction with lamivudine, stavudine, or zidovudine” value in data set [6] is listed as “no pharmacokinetic”. The “Effect on phosphorylation of lamivudine, stavudine, and zidovudine” value in data set [7] was “reduces phosphorylation”.

Source of the values: patent US20220096487A1 (priority 2019, published 2022).
